The results in this text go back to patent US11034970B2, “Production of protein from hairy roots of a Brassicaceae plant utilizing rhizobium comprising rol genes” (UNIVERSITE DE PICARDIE JULES VERNE, priority 2015, dated 2021).

Holding throughout (assay type): cell-based, Brassica rapa
The subject of assay [1] is hairy roots of the clone 2M1. Description: Test 2: GFP secreted in the culture medium, Erlenmeyer flasks, two renewals of medium. Particulars: 2,4-D 1 mg/l, first change of medium. The method, then:
(§1) For the quantification of 6× His-EGFP, culture medium was diluted to 20× or 40× in a 50 mM tris buffer at pH 7.5. The fluorescence of the solution was measured using the BioRad VersaFluor™ fluorometer (excitation filter 485-495 nm; emission filter 505-515 nm). The calibration of the fluorometer was carried out using the commercially available recombinant 6× His-EGFP (BioVision) at a concentration of 10 mg/l.
The clone 2M1 was inoculated at t0 into 5 Erlenmeyer flasks at a rate of 2 g of fresh roots in 100 ml of B53 medium. After culture at 26° C. with a stirrer at 110 rpm for 15 days, the roots have reached a mass of 24.4 g+/−3.90.
A first change of medium was then carried out in each of the flasks as follows; • in two flasks, the B53 medium was replaced with fresh B53 medium in order to carry out two repetitions for the control hairy roots; • in three flasks, the B53 medium was replaced with B53 medium with 2,4-D added at 1 mg/l in order to carry out three repetitions for inducing the development of lateral root emergences;
The GFP secreted in the culture medium was quantified 7 to 14 days after this first change of medium.
A second change of medium was then carried out in these same flasks, in an identical manner:
in the two flasks of control hairy roots. the B53 medium was replaced with fresh B53 medium; […]

The test system of assay [2] is hairy roots of the clone 2M1. Kind of assay: Test 3: GFP concentration in the culture medium after culture for 21 days (Petri dishes). Particulars: 2,4-D 1 mg/l. The method, then: as §1
Roots of the clone 2M1 were inoculated in 14 Petri dishes, each containing 5 ml of liquid B53 culture medium. They were cultured at 26° C. under stirring at 110 rpm for 17 days.
The medium was then changed in the Petri dishes as follows: • in seven Petri dishes, the medium was removed and replaced with fresh B53 culture medium with 2,4-D added at 1 mg/l (LRE 1 to 7) in order to induce the development of lateral root emergences in these dishes; • and in the other seven Petri dishes, the medium was removed and replaced with fresh B53 culture medium (Controls 1 to 7).
The roots were maintained at 26° C. under stirring at 110 rpm for 21 days.

Assay [3] has as its system hairy roots of the clone 2M1. Description: Induction of lateral root emergences on hairy roots, morphology. Particulars: 2,4-D 0.5 mg/l in B53 medium, during the following 7 days. The method, then: (§2) In order to modify the morphology of the hairy roots and prevent the development of the root hairs, roots of the clone 2M1 producing GFP were cultured in B53 liquid medium for two weeks. This culture medium was then removed and replaced with fresh B53 medium containing 2,4-dichlorophenoxyacetic acid (2,4-D), an auxin-type hormone, at 0.5 mg/l.
In order to characterize these conical structures or “lateral root emergences” developing on the roots after hormonal induction, longitudinal sections (FIG. 3) and cross sections (FIG. 4) were produced in the control hairy roots after culture for 2 weeks in B53 medium and in hairy roots having lateral root emergences after culture for 2 weeks in B53 medium with 2,4-D auxin added.
The tissues were fixed in 4% p-formaldehyde overnight at 4° C., dehydrated in baths of ethanol of increasing concentrations, then enclosed in LR White resin. Sections with a thickness of 0.5 to 1 μm were produced using a Leica RM2265 microtome, stained with toluidine blue and observed using a Nikon Eclipse 90i microscope. The images were obtained using a Nikon Digital Sight DS-5Mc device, in visible light or in fluorescence to locate the GFP.

Assay [4] deals with hairy roots of the clone 2M1. Description: Test 1: quantification by fluorometry of GFP secreted in the culture medium (Petri dishes). The procedure: as §2, §1
After culture of hairy roots of the clone 2M1 in B53 liquid medium for two weeks, this medium was replaced with fresh B53 medium containing 2,4-D auxin at 0.5 mg/l, in order to induce the development of lateral root emergences. The hairy roots of the clone 2M1 were thus cultured in Petri dishes containing 5 ml of B53 medium with 2,4-D added, at 23° C. and under stirring at 56 rpm.
The GFP secreted in the culture medium by the hairy roots having lateral root emergences, was quantified (10 repetitions) one and two weeks after the addition of 2,4-D auxin at 0.5 mg/l (Table 2).
Hairy roots of the clone 2M1 were cultured (9 repetitions) under the same conditions changing the B53 medium with fresh B53 medium but without the addition of auxin after culture for the first two weeks, in order to constitute control batches of hairy roots.

The test system of assay [5] is hairy roots of the clone LG5. Description: Human gastric lipase activity in the liquid culture medium (4-methylumbelliferyl oleate substrate). Particulars: 2,4-D 1 mg/l. The method, then:
For this study, a subculture was carried out in six empty Erlenmeyer flasks, to which 1 g of biomass of the same mass of roots of the clone LG5 and 100 ml of liquid Gamborg B53 medium are added. The roots are cultured at 26° C. and under stirring at 110 rpm for two weeks.
In order to induce the development of lateral root emergences (LRE) in three Erlenmeyer flasks, this liquid medium is replaced with fresh B53 culture medium containing 2,4-dichlorophenoxyacetic acid (2,4-D) at 1 mg/l.
In the other three Erlenmeyer flasks having conventional hairy roots (HR), it is replaced with fresh B53 liquid culture medium, without 2,4-D.
After culture for two weeks at 26° C. with stirring at 110 rpm, a second change of medium was carried out in the flasks in an identical manner, in order to replace the culture medium with a fresh culture medium with +/−2,4-D at 1 mg/l.
The activity of the human gastric lipase is measured directly from the liquid culture media in the 6 flasks (14 days and 28 days after induction). The enzymatic activity is measured at 37° C. using 4-methylumbelliferyl oleate (0.1 mM) as substrate. The fluorescence of the 4-methylumbelliferone (MU), product of the enzyme reaction by the gastric lipase, is measured with a fluorometer (Excitation: 330 nm; Emission: 450 nm). This fluorescence is correlated to the human gastric lipase activity (FIG. 11).

Where [6] appears, read: lateral root emergences (LRE), 37° C., 3 flasks.

Where “and” joins values, the source holds several entries; their conditions need not be identical. Equal entries are not always repeated.

Consider `O=C(O)COc1ccc(Cl)cc1Cl` [2,4-D, 2,4-dichlorophenoxyacetic acid], for which, in assay [1], the “secretion of GFP versus control cultures after treatment for 14 days” value is “doubled”. Besides, the “concentration of GFP in the medium after 21 days” value in assay [2] (7 Petri dishes, roots with lateral root emergences) was 597 mg/L. Also, the “concentration of GFP in the medium, times greater than control hairy roots” value in assay [2] (after 21 days) was determined as 4.3. Moreover, the “morphology of the hairy roots after hormonal induction” value in assay [3] is “Numerous conical structures called “lateral root emergences” (LRE) then developed on the hairy roots”. The “GFP in the culture medium versus control hairy roots (Student's test)” value in assay [4] (2,4-D 0.5 mg/l versus medium without 2,4-D) is given as “significant difference”. The “GFP in the culture medium, 2 weeks after B53 + 2,4-D, average” value in assay [4] (average of 10 Petri dishes (n=10), 2,4-D 0.5 mg/l) is 164 ± 10.3 mg/L and 164 mg/L. For the same molecule, the “GFP in the culture medium, 1 week after B53 + 2,4-D, average” value in assay [4] (average of 10 Petri dishes, 2,4-D 0.5 mg/l) is 52 mg/L. Besides, the “activity of the human gastric lipase, times greater than conventional hairy roots (HR)” value in assay [5] (LRE versus HR) is listed as “approximately 3”. Besides, in assay [5] (setting [6]), the “activity of the human gastric lipase in the culture medium at 14 days” value amounted to 16 ± 0.6 pmol/min and the “activity of the human gastric lipase in the culture medium at 28 days” value is 45 ± 0.3 pmol/min.
